Results taken from patent US20230398125A1, “TREATING HEPATITIS” (Albireo AB, priority 2022, published 2023).

Key:
Human NTCP [1] = target: T1, Human NTCP (Homo sapiens, UniProt Q14973); test: [3H]TC transport in NTCP-HEK293 cells; type: cell-based; conditions: read-out: IC50 [3H]taurocholic acid uptake
T1 construct: expressed in transfected cells; peptide purchased from Pharmaron
T1 sequence (Q14973 1-349): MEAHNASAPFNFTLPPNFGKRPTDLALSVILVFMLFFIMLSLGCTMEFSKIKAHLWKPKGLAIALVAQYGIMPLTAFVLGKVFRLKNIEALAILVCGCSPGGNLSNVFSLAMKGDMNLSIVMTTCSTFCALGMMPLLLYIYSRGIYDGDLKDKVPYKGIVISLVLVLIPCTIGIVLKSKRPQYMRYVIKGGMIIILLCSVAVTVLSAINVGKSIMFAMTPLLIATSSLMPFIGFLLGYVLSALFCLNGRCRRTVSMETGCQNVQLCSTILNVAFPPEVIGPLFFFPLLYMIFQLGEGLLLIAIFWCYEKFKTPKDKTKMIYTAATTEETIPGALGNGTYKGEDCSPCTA
Method: (§1) Human embryonic kidney (HEK293) cells were stably transfected with human NTCP, C-terminally tagged with the FLAG epitope (here referred to as NTCP-HEK293 cells). Cells were maintained at 37° C., 5% CO2 and 95% humidity in DMEM/F-12 medium (Thermo Fisher Scientific, Waltham, Mass., USA) supplemented with 10% fetal calf serum (Sigma-Aldrich, St. Louis, Mo., USA), 4 mM L-glutamine, and penicillin/streptomycin. HepG2 cells stably transfected with NTCP-FLAG (here referred to as NTCP-HepG2) were cultured under the same conditions in DMEM with all supplements listed above, except for L-glutamine. […]
(§2) Bile acid transport measurements were performed in the NTCP-HEK293 cells with tritium-labelled taurocholic acid (here referred to as [^3H]TC) (20 Ci/mmol, 0.09 mCi/mL, Perkin Elmer, Waltham, USA). […] Cell-associated radioactivity of [^3H]TC or [^3H]preS1 was quantified by liquid scintillation counting in a Packard Microplate Scintillation Counter TopCount NXT (Packard Instrument Company, Meriden, USA). Transport rates and [^3H]preS1 binding were determined in counts per minute (cpm). The mean of the 0% control was subtracted and the net [^3H]TC transport rates and net [^3H]preS1 binding rates, respectively, were expressed as % of control. IC50 values were calculated from quadruplicate determinations by GraphPad Prism 6 (GraphPad, San Diego, Calif., USA). […]

Human NTCP [2] = target: T1, Human NTCP; test: [3H]preS1 peptide binding to NTCP-HEK293 cells
Method: as §1, §2

M. fascicularis Ntcp = target: T2, M. fascicularis Ntcp (Macaca fascicularis, UniProt G7PAR4); test: [3H]TC transport in HEK293 cells transiently transfected with M. fascicularis Ntcp; type: cell-based; conditions: read-out: IC50 bile acid transport via M. fascicularis Ntcp
T2 construct: expressed in transfected cells; host or cells: GripTite 293 MSR (HEK293) cells, transient, Lipofectamine 2000
T2 sequence (G7PAR4 1-349): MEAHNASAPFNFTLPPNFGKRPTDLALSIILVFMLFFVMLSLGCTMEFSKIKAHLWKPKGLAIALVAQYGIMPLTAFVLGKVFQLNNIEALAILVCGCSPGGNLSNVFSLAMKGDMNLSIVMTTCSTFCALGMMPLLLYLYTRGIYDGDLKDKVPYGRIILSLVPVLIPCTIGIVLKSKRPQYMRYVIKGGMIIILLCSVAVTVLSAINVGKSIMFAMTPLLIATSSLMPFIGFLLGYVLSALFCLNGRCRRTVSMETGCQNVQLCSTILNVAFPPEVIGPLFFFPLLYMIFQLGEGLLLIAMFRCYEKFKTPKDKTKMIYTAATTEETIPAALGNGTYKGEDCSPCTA
Method: GripTite 293 MSR cells (here referred to as HEK293 cells, Invitrogen), a modified HEK293 cell line expressing human macrophage scavenger receptor for stronger adhesion, were maintained at 37° C., 5% CO2 and 95% humidity in DMEM/F-12 medium (Thermo Fisher Scientific) supplemented with 10% fetal calf serum (Sigma), 4 mM L-glutamine (PAA) and penicillin/streptomycin. HEK293 cells were transiently transfected with the M. fascicularis Ntcp cDNA construct for transport and peptide binding assays. Transfection was performed with Lipofectamine 2000 (Thermo Fisher Scientific). […]
as §2

SMILES: CCCCC1CN(c2ccccc2)c2cc(SC)c(O/C=C(\F)C(=O)O)cc2S(=O)(=O)N1C (stereo not drawn) [Compound 1, (Z)-3-((3-butyl-2-methyl-7-(methylthio)-1,1-dioxido-5-phenyl-2,3,4,5-tetrahydro-1,2,5-benzothiadiazepin-8-yl)oxy)-2-fluoroacrylic acid]
- IC50 (Human NTCP [1]): 186 nM
- IC50 (Human NTCP [2]): 149 nM
- IC50 (M. fascicularis Ntcp): 200 nM
